Reference: publication PMC4730229, “Benzobisthiazoles Represent a Novel Scaffold for Kinase Inhibitors of CLK Family Members” (Biochemistry, 2015)

Key:
Type in all cases: biochemical
PKCz = PKCz (Homo sapiens, UniProt Q05513); experiment: Kinase profiling (radioactive filter binding); settings: 1 uM compound
Protocol: (§1) 3A5 and 5E4 were sent to the International Centre for Kinase Profiling at the MRC Protein Phosphorylation and Ubiquitylation Unit for profiling (as described in ref ([17])). Compounds were profiled against 140 kinases using a radioactive ([^33P]ATP) filter binding assay at a concentration of 1 μM. Results were obtained as inhibition of kinase activity and are listed in Supplementary Table 2.

TAK1 = TAK1 (Homo sapiens, UniProt O43318); experiment: Kinase profiling (radioactive filter binding); settings: 1 uM compound
Protocol: as §1

p38g MAPK = p38g MAPK (Homo sapiens, UniProt P53778); experiment: Kinase profiling (radioactive filter binding); settings: 1 uM compound
Protocol: as §1

EPH-B2 = EPH-B2 (Homo sapiens, UniProt P29323); experiment: Kinase profiling (radioactive filter binding); settings: 1 uM compound
Protocol: as §1

PIM1 = PIM1 (Homo sapiens, UniProt P11309); experiment: Kinase profiling (radioactive filter binding); settings: 1 uM compound
Protocol: as §1

IGF-1R = IGF-1R (Homo sapiens, UniProt P08069); experiment: Kinase profiling (radioactive filter binding); settings: 1 uM compound
Protocol: as §1

DAPK1 = DAPK1 (Homo sapiens, UniProt P53355); experiment: Kinase profiling (radioactive filter binding); settings: 1 uM compound
Protocol: as §1

MST4 = MST4 (Homo sapiens, UniProt Q9P289); experiment: Kinase profiling (radioactive filter binding); settings: 1 uM compound
Protocol: as §1

PAK4 = PAK4 (Homo sapiens, UniProt O96013); experiment: Kinase profiling (radioactive filter binding); settings: 1 uM compound
Protocol: as §1

TLK1 = TLK1 (Homo sapiens, UniProt Q9UKI8); experiment: Kinase profiling (radioactive filter binding); settings: 1 uM compound
Protocol: as §1

RIPK2 = RIPK2 (Homo sapiens, UniProt O43353); experiment: Kinase profiling (radioactive filter binding); settings: 1 uM compound
Protocol: as §1

Src = Src (Homo sapiens, UniProt P12931); experiment: Kinase profiling (radioactive filter binding); settings: 1 uM compound
Protocol: as §1

ULK1 = ULK1 (Homo sapiens, UniProt O75385); experiment: Kinase profiling (radioactive filter binding); settings: 1 uM compound
Protocol: as §1

DYRK3 = DYRK3 (Homo sapiens, UniProt O43781); experiment: Kinase profiling (radioactive filter binding); settings: 1 uM compound
Protocol: as §1

MAPKAP-K3 = MAPKAP-K3 (Homo sapiens, UniProt Q16644); experiment: Kinase profiling (radioactive filter binding); settings: 1 uM compound
Protocol: as §1

CHK2 = CHK2 (Homo sapiens, UniProt O96017); experiment: Kinase profiling (radioactive filter binding); settings: 1 uM compound
Protocol: as §1

MARK3 = MARK3 (Homo sapiens, UniProt P27448); experiment: Kinase profiling (radioactive filter binding); settings: 1 uM compound
Protocol: as §1

SmMLCK = SmMLCK (Homo sapiens, UniProt Q15746); experiment: Kinase profiling (radioactive filter binding); settings: 1 uM compound
Protocol: as §1

IR = IR (Homo sapiens, UniProt P06213); experiment: Kinase profiling (radioactive filter binding); settings: 1 uM compound
Protocol: as §1

ZAP70 = ZAP70 (Homo sapiens, UniProt P43403); experiment: Kinase profiling (radioactive filter binding); settings: 1 uM compound
Protocol: as §1

Lck = Lck (Homo sapiens, UniProt P06239); experiment: Kinase profiling (radioactive filter binding); settings: 1 uM compound
Protocol: as §1

MKK2 = MKK2 (Homo sapiens, UniProt P36507); experiment: Kinase profiling (radioactive filter binding); settings: 1 uM compound
Protocol: as §1

Aurora A = Aurora A (Homo sapiens, UniProt O14965); experiment: Kinase profiling (radioactive filter binding); settings: 1 uM compound
Protocol: as §1

BRK = BRK (Homo sapiens, UniProt Q13882); experiment: Kinase profiling (radioactive filter binding); settings: 1 uM compound
Protocol: as §1

ERK8 = ERK8 (Homo sapiens, UniProt Q8TD08); experiment: Kinase profiling (radioactive filter binding); settings: 1 uM compound
Protocol: as §1

LKB1 = LKB1 (Homo sapiens, UniProt Q15831); experiment: Kinase profiling (radioactive filter binding); settings: 1 uM compound
Protocol: as §1

CSK = CSK (Homo sapiens, UniProt P41240); experiment: Kinase profiling (radioactive filter binding); settings: 1 uM compound
Protocol: as §1

CLK2 = CLK2 (Homo sapiens, UniProt P49760); experiment: Kinase inhibition assay, IC50; design: cDNA encoding the CLK2 catalytic domain (CLK2cd, amino acids 140–496); made in house; host or cells: Escherichia coli BL21(DE3)-R3-lambda-PPase; settings: relative to 3A5

Chain of Src (P12931 whole entry): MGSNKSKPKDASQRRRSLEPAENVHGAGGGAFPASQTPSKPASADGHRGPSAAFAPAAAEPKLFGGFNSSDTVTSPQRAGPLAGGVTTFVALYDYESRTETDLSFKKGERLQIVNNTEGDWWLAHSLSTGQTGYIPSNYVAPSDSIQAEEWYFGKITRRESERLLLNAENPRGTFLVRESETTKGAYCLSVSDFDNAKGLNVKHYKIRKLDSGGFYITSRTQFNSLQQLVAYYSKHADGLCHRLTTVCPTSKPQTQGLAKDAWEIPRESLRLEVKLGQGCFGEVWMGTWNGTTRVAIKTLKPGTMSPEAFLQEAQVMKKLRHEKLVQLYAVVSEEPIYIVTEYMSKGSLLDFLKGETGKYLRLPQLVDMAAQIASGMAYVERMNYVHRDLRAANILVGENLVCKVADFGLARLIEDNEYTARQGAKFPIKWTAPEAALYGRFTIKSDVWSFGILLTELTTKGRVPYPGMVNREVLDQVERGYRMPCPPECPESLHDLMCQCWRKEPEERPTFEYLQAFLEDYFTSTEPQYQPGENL
Chain of LKB1 (Q15831 whole entry): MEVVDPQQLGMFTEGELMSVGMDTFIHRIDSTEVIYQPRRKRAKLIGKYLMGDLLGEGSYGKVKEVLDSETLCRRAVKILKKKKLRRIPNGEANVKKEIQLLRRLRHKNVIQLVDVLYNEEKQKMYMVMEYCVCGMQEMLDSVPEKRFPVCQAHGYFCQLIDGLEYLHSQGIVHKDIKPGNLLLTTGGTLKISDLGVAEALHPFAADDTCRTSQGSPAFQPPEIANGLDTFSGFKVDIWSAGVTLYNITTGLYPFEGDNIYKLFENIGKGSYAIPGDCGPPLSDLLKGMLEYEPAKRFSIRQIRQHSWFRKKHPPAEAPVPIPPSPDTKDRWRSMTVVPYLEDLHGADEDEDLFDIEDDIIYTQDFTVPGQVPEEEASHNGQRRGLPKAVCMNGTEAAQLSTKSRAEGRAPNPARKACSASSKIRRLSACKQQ
Chain of LKB1 (Q7RTN6 whole entry partner): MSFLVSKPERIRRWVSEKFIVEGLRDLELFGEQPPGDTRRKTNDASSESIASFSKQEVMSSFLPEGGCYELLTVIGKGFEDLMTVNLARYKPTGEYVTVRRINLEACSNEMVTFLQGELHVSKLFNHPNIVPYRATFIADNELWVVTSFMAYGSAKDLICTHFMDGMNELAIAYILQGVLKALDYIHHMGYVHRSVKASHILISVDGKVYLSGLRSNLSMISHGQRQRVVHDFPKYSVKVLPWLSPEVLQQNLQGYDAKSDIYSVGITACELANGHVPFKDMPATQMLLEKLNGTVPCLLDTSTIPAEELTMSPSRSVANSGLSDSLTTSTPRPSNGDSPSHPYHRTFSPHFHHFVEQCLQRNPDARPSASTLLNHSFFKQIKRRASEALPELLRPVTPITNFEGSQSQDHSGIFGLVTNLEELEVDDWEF
Chain of LKB1 (Q9Y376 whole entry partner): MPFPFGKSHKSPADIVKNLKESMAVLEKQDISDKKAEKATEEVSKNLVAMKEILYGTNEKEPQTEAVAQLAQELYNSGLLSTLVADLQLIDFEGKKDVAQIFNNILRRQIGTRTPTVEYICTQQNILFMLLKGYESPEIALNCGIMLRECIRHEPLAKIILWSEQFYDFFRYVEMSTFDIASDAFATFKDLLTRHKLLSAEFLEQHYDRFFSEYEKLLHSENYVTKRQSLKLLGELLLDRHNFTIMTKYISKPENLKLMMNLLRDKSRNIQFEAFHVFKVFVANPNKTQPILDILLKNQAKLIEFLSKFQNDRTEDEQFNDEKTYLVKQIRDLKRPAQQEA
Chain of DYRK3 (O43781 whole entry): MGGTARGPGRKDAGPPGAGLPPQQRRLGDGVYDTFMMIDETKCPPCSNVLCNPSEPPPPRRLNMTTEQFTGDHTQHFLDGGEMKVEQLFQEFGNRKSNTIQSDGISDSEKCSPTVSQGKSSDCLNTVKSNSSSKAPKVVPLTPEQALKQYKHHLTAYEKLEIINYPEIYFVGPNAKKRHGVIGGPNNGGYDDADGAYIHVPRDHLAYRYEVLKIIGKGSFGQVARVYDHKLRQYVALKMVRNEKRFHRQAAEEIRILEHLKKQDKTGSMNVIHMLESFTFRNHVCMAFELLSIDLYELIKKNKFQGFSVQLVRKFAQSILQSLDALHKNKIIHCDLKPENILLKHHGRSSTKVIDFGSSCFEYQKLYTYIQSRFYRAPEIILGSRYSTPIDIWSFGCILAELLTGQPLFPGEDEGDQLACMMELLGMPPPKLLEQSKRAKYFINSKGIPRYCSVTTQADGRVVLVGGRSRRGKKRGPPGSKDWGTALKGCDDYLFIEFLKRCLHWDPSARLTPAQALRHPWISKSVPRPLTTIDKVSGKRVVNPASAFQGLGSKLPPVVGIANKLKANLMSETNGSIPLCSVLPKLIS
Chain of EPH-B2 (P29323 19-1055): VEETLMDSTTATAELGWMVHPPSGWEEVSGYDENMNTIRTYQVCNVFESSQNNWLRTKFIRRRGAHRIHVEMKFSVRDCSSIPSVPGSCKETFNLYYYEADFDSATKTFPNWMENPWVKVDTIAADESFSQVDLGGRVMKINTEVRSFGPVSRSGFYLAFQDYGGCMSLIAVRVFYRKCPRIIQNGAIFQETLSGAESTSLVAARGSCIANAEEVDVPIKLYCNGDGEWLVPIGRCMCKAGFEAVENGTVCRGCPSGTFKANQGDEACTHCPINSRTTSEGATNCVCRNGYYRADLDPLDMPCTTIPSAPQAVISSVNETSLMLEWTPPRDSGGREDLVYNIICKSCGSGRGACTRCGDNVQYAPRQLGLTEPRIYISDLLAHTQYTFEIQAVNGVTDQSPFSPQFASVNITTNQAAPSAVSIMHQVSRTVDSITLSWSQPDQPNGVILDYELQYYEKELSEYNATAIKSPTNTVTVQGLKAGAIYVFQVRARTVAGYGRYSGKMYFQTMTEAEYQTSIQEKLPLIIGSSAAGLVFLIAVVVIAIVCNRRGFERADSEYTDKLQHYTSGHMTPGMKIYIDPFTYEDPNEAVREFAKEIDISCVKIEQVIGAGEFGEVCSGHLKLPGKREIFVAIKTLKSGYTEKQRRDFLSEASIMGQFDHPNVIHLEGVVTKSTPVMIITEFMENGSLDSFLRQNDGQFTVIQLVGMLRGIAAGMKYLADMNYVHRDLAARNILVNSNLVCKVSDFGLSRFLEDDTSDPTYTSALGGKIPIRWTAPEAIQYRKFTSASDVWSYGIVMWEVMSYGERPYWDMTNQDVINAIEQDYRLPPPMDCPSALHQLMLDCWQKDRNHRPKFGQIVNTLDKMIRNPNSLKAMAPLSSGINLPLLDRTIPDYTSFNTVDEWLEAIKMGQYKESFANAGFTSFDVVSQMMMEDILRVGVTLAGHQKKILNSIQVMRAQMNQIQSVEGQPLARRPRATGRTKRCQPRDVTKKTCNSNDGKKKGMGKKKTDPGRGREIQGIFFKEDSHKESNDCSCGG
Chain of ULK1 (O75385 whole entry): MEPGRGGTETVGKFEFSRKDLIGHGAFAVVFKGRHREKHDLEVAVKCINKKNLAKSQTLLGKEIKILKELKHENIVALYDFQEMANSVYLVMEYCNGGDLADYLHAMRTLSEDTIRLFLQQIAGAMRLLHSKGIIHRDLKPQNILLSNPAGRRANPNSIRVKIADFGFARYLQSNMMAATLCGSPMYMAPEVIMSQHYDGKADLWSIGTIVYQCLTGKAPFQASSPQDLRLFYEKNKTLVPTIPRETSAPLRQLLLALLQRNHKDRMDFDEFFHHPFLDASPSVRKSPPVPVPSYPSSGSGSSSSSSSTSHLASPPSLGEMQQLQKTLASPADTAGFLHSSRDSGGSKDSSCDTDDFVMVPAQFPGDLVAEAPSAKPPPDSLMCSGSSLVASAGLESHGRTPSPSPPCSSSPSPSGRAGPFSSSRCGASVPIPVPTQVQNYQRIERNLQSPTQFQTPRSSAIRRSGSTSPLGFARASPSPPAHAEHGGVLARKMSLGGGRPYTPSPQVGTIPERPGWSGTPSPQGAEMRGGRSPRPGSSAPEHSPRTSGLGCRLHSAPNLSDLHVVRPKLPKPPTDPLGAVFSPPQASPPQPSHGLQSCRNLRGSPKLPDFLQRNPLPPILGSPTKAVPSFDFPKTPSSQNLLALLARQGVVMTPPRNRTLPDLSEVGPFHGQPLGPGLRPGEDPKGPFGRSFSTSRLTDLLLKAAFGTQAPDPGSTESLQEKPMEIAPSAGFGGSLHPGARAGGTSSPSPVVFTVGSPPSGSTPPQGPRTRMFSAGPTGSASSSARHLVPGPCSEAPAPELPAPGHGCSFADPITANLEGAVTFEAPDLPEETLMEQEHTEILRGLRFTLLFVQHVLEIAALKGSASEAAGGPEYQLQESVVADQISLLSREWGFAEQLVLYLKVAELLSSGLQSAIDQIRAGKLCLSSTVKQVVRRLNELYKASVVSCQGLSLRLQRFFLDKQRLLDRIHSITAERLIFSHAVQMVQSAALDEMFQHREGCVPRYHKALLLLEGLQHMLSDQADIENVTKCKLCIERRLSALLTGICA
Chain of MKK2 (P36507 whole entry): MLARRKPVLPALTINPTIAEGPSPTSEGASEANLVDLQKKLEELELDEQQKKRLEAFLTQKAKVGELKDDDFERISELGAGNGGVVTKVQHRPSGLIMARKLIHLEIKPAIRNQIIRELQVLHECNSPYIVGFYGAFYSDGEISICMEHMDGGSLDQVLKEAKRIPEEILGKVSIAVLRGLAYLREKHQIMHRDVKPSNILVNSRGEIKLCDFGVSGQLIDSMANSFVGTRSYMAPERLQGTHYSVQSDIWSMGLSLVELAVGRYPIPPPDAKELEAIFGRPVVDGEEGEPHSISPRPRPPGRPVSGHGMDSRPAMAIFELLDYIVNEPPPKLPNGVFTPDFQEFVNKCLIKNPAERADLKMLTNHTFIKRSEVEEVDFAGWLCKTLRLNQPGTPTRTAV

SMILES	PKCz activity in kinase profiling (PKCz)	TAK1 activity in kinase profiling (TAK1)	p38g MAPK activity in kinase profiling (p38g MAPK)	EPH-B2 activity in kinase profiling (EPH-B2)	PIM1 activity in kinase profiling (PIM1)	IGF-1R activity in kinase profiling (IGF-1R)	DAPK1 activity in kinase profiling (DAPK1)	MST4 activity in kinase profiling (MST4)	PAK4 activity in kinase profiling (PAK4)	TLK1 activity in kinase profiling (TLK1)	RIPK2 activity in kinase profiling (RIPK2)	Src activity in kinase profiling (Src)	ULK1 activity in kinase profiling (ULK1)	DYRK3 activity in kinase profiling (DYRK3)	MAPKAP-K3 activity in kinase profiling (MAPKAP-K3)	CHK2 activity in kinase profiling (CHK2)	MARK3 activity in kinase profiling (MARK3)	SmMLCK activity in kinase profiling (SmMLCK)	IR activity in kinase profiling (IR)	ZAP70 activity in kinase profiling (ZAP70)	other results
Cc1nc2ccc3sc(NC(=O)c4ccc5ncsc5c4)nc3c2s1 [3A5, N-(2-methyl[1,3]thiazolo[5,4-e][1,3]benzothiazol-7-yl)-1,3-benzothiazole-6-carboxamide]	115	87	107	90	71	123	73	90	84	99	83	89	138	72	81	77	91	50	127	109	Lck activity in kinase profiling (Lck): 116; MKK2 activity in kinase profiling (MKK2): 115; Aurora A activity in kinase profiling (Aurora A): 127; BRK activity in kinase profiling (BRK): 97; ERK8 activity in kinase profiling (ERK8): 82; LKB1 activity in kinase profiling (LKB1): 79; CSK activity in kinase profiling (CSK): 93
CSc1nc2ccc3nc(NC(=O)c4ccco4)sc3c2s1 [5E4, N-[7-(methylsulfanyl)[1,3]thiazolo[4,5-g][1,3]benzothiazol-2-yl]-2-furamide]	103	67	105	94	96	117	76	93	74	92	34	79	127	30	86	88	83	43	116	93	decrease of inhibition against CLK2 compared to 3A5 (CLK2): 2–3 fold; Lck activity in kinase profiling (Lck): 101; MKK2 activity in kinase profiling (MKK2): 121; Aurora A activity in kinase profiling (Aurora A): 107; BRK activity in kinase profiling (BRK): 98; ERK8 activity in kinase profiling (ERK8): 83; LKB1 activity in kinase profiling (LKB1): 79; CSK activity in kinase profiling (CSK): 99
